Laboratory results reported in ChEMBL document CHEMBL5113380, “Functionalized quinoxalinones as privileged structures with broad-ranging pharmacological activities” (Eur J Med Chem, 2022).
≈ marks a conversion by molar mass, not a printed value.

How the values were obtained:
HeLa = assay: Antiproliferative activity against human HeLa cells; assay type: functional, cell-based
HT-29 = assay: Antiproliferative activity against human HT-29 cells; assay type: functional, cell-based
SMMC-7721 = assay: Antiproliferative activity against human SMMC-7721 cells; assay type: functional, cell-based
Anopheles sp. [1] = assay: Larvicidal activity against Anopheles at 0.25 ug/ml; assay type: functional; conditions: dose 0.25 µg/ml
Anopheles sp. [2] = assay: Larvicidal activity against Anopheles at 0.5 ug/ml; assay type: functional; conditions: dose 0.5 µg/ml
Anopheles sp. [3] = assay: Larvicidal activity against Anopheles at 1 ug/ml; assay type: functional; conditions: dose 1.0 µg/ml
Anopheles sp. [4] = assay: Larvicidal activity against Anopheles at 0.1 ug/ml; assay type: functional; conditions: dose 0.1 µg/ml
Staphylococcus aureus [5] = assay: Antibacterial activity against methicillin-resistant Staphylococcus aureus; assay type: functional
Staphylococcus aureus [6] = assay: Antibacterial activity against methicillin-sensitive Staphylococcus aureus; assay type: functional
[7] = Binding affinity to Creatine kinase (CK) (unknown origin); parameters: species or system Homo sapiens
[8] = Metabolic stability in rat liver microsomes assessed as half-life; assay type: ADME, Microsome
Homo sapiens [9] = species on record: Homo sapiens; assay: Binding affinity to Creatine kinase (CK) (unknown origin) relative to control
[10] = Binding affinity to estrogen receptor (unknown origin); parameters: species or system Homo sapiens
Homo sapiens [11] = species on record: Homo sapiens; assay: Binding affinity to estrogen receptor (unknown origin) relative to control
[12] = Aqueous solubility of the compound at pH 7.4; assay type: physicochemical; conditions: buffer
HeLa 229 = assay: Antiproliferative activity against human HeLa 229 cells after 72 hrs by MTT assay; assay type: functional, cell-based; conditions: HeLa 229, 72 h
B16-F10 = assay: Antiproliferative activity against mouse B16-F10 cells after 72 hrs by MTT assay; assay type: functional, cell-based; conditions: B16-F10, 72 h
HCT-116 = assay: Antiproliferative activity against human HCT-116 cells after 72 hrs by MTT assay; assay type: functional, cell-based; conditions: HCT-116, 72 h
[13] = biological target: T1, Fibroblast growth factor receptor 1 (Homo sapiens, UniProt P11362); assay: Inhibition of FGFR1 (unknown origin) using ULight-JAK-1 (Tyr1023) peptide as substrate incubated for 90 mins and measured after 1 hr by LANCE Ultra TR-FRET assay
Target sequence in this assay (P11362 whole entry): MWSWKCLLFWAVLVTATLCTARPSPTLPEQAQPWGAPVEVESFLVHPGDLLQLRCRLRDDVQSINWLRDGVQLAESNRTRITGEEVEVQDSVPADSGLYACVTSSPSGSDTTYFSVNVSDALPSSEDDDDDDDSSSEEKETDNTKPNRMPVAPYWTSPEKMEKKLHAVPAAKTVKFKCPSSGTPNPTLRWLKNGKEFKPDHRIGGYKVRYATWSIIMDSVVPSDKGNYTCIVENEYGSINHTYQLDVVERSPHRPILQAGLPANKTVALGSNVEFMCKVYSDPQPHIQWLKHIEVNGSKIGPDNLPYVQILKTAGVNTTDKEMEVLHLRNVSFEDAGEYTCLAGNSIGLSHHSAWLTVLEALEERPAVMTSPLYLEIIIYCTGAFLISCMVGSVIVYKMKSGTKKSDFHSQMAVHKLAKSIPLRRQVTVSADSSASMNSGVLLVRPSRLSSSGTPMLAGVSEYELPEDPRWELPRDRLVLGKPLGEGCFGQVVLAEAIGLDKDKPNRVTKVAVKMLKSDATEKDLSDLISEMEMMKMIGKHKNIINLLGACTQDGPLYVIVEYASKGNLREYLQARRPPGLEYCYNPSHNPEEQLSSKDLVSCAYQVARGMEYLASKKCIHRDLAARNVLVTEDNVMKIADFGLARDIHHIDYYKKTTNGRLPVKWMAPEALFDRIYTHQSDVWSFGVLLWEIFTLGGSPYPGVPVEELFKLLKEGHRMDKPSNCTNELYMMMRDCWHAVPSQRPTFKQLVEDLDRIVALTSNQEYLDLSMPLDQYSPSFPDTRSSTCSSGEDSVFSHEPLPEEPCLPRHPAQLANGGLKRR

NCI-H460 = assay: Antiproliferative activity against human NCI-H460 cells after 72 hrs by MTT assay; assay type: functional, cell-based; conditions: NCI-H460, 72 h
L02 = assay: Antiproliferative activity against human HL7702 cells after 72 hrs by MTT assay; assay type: functional, cell-based; conditions: L02, 72 h
[14] = biological target: T1, Fibroblast growth factor receptor 1; assay: Inhibition of FGFR1 (unknown origin) using ULight-JAK-1 (Tyr1023) peptide as substrate incubated for 90 mins at 10 uM and measured after 1 hr by LANCE Ultra TR-FRET assay relative to control
Target sequence in this assay (P11362 22-822 limits assumed): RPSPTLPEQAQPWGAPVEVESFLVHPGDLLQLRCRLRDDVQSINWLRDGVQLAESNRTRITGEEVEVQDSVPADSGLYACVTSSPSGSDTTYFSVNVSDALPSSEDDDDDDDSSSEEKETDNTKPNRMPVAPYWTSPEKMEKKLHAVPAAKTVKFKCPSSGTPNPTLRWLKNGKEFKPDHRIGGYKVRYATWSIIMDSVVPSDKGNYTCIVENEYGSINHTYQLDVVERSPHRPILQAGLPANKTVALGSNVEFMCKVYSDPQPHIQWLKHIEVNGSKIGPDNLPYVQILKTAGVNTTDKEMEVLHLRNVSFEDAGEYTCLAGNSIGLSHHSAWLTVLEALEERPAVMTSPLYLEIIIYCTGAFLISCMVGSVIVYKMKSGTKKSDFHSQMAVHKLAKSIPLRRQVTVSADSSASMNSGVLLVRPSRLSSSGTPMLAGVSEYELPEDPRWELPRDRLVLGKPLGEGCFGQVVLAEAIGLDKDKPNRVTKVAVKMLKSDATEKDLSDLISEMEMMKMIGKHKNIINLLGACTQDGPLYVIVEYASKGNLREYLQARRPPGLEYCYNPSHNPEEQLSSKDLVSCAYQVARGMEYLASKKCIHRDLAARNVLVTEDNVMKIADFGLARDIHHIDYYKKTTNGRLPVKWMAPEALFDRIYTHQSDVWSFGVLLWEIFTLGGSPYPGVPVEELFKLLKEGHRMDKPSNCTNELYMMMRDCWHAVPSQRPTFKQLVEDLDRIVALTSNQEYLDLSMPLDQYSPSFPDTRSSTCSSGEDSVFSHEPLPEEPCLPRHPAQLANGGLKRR

Shigella dysenteriae = assay: Antibacterial activity against Shigella dysenteriae; assay type: functional
Bacillus cereus = assay: Antibacterial activity against Bacillus cereus; assay type: functional
Staphylococcus aureus [15] = assay: Antibacterial activity against Staphylococcus aureus; assay type: functional
Bacillus subtilis = assay: Antibacterial activity against Bacillus subtilis; assay type: functional
Klebsiella pneumoniae = assay: Antibacterial activity against Klebsiella pneumoniae; assay type: functional
Bacillus anthracis = assay: Antibacterial activity against Bacillus anthracis; assay type: functional
[16] = test system: Geobacillus stearothermophilus; assay: Antibacterial activity against Bacillus stearothermophilus; assay type: functional
Escherichia coli = assay: Antibacterial activity against Escherichia coli; assay type: functional
Rattus norvegicus [17] = assay: Antiinflammatory activity in rat model of hind paw edema assessed as paw thickness at 0.9 mg per 100 g of body weight measured after 4 hrs; assay type: functional
[18] = Ratio IC50 for cytotoxicity against rat myoblast L6 cells over IC50 for antitrypanosomal activity against Trypanosoma brucei; assay type: toxicity, cell-based; conditions: read-out: Ratio IC50
[19] = Cytotoxicity against rat myoblast L6 cells; assay type: toxicity, cell-based
Trypanosoma brucei = assay: Antitrypanosomal activity against Trypanosoma brucei; assay type: functional, organism-based
[20] = biological target: Glutamate [NMDA] receptor; assay: Displacement of [3H]DCKA from NMDA receptor (unknown origin); assay type: protein-complex assay, Homo sapiens
[21] = biological target: Glutamate [NMDA] receptor (Homo sapiens) (UniProt Q05586+Q12879+Q13224+O15399+O60391+Q14957+Q8TCU5); assay: Displacement of [3H]DCKA from NMDA receptor (unknown origin) at 10 ng/ml relative to control; assay type: protein-complex assay; conditions: filed as antagonist
Candida = assay: Antifungal activity against Candida species; assay type: functional
Pseudomonas aeruginosa = assay: Antibacterial activity against Pseudomonas aeruginosa; assay type: functional
Enterococcus faecalis = assay: Antibacterial activity against Enterococcus faecalis; assay type: functional
HeLa S3 = assay: Cytotoxicity against human HeLa S3 cells; assay type: functional, cell-based
[22] = biological target: Kappa-type opioid receptor (Homo sapiens, UniProt P41145); assay: Antagonist at KOR expressed in human U2OS cells measured by High content imaging based beta-arrestin translocation assay; assay type: cell-based
[23] = biological target: Glutamate receptor ionotropic AMPA (Homo sapiens, UniProt P42261+P42262+P42263+P48058); assay: Antagonist activity at AMPA receptor (unknown origin); assay type: protein-complex assay
[24] = Displacement of [3H]AMPA from NMDA receptor (unknown origin); assay type: protein-complex assay, Homo sapiens
[25] = biological target: Glutamate [NMDA] receptor; assay: Displacement of [3H]kainic acid from NMDA receptor (unknown origin); assay type: protein-complex assay, Homo sapiens
[26] = biological target: Glutamate [NMDA] receptor; assay: Displacement of [3H]CGP-39653 from NMDA receptor (unknown origin); assay type: protein-complex assay, Homo sapiens
Mus musculus = assay: Antiinflammatory activity against mouse assessed as reduction in carragenan-induced paw edema at 25 mg/kg,po treated 1 hr prior to carrageenan challenge; assay type: functional; parameters: scale not given: the % may be the effect or the level left
Rattus norvegicus [27] = assay: Ulcerogenic activity in male albino rat assessed as ulceration at 25 mg/kg, po; assay type: functional
RAW264.7 = assay: Anti-inflammatory activity in mouse RAW264.7 cells assessed as inhibition of LPS-induced NO production at 10 uM after 24 hrs by Griess reagent-based assay; assay type: functional; parameters: scale not given: the % may be the effect or the level left

Sequence of Kappa-type opioid receptor (P41145 whole entry): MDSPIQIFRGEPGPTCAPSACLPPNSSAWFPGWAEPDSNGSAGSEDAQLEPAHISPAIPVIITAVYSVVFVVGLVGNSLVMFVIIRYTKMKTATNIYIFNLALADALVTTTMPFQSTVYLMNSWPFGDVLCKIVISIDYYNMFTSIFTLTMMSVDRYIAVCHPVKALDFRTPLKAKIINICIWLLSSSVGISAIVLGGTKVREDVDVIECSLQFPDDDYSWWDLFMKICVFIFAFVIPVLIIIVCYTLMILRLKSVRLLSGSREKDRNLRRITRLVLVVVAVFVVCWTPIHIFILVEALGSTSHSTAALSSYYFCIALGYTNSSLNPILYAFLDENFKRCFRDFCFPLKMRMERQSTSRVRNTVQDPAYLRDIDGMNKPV

COC(=O)c1ccc2c(c1)NCCN2Cc1cc(OC)c(OC)c(OC)c1
IC50 (HeLa): 194 nM | IC50 (HT-29): 510 nM | IC50 (SMMC-7721): 427 nM

C=Cn1c(=O)c(-c2ccccc2)nc2ccc(OC)cc21
Activity (Anopheles sp. [1]): 100% | Activity (Anopheles sp. [2]): 100% | Activity (Anopheles sp. [3]): 100% | Activity (Anopheles sp. [4]): 80%

COc1ccc2ncc(=O)n(CC[C@H]3OC[C@H](NCc4cc5c(cn4)OCCC5)CO3)c2c1
MIC (Staphylococcus aureus [5]): 32 µg/mL (≈ 70.7 µM) | MIC (Staphylococcus aureus [6]): 8.16 µg/mL (≈ 18 µM)

CC[C@H]1C(=O)N(CC)c2ccc(F)cc2N1C(=O)c1ccc(O)cc1O
EC50 [7]: 50 nM | half-life [8]: > 30 min | Activity (Homo sapiens [9]): 44% | IC50 [10]: 5.4 nM | Activity (Homo sapiens [11]): 92% | solubility [12]: > 100 µg/mL

O=c1[nH]c2ccccc2nc1/C=C/c1ccccn1
IC50 (HeLa 229): 2890 nM | IC50 (B16-F10): 58 nM | IC50 (HCT-116): 270 nM | IC50 [13]: 15300 nM | IC50 (NCI-H460): 460 nM | IC50 (L02): > 100000 nM | inhibition [14]: 79.3%

C/C(=N\Nc1nc2ccccc2[nH]c1=O)c1cc2cc(Cl)ccc2oc1=O
MIC (Shigella dysenteriae): 15.6 µg/mL (≈ 41 µM) | MIC (Bacillus cereus): 7.8 µg/mL (≈ 20.5 µM) | MIC (Staphylococcus aureus [15]): 15.6 µg/mL (≈ 41 µM) | MIC (Bacillus subtilis): 7.8 µg/mL (≈ 20.5 µM) | MIC (Klebsiella pneumoniae): 7.8 µg/mL (≈ 20.5 µM) | MIC (Bacillus anthracis): 7.8 µg/mL (≈ 20.5 µM) | MIC [16]: 7.8 µg/mL (≈ 20.5 µM) | MIC (Escherichia coli): 7.8 µg/mL (≈ 20.5 µM)

O=C(Cc1nc2ccccc2[nH]c1=O)Nn1c(-c2ccc(Cl)cc2)csc1=S
Activity (Rattus norvegicus [17]): 0.45 mm

O=C1Nc2cc([N+](=O)[O-])ccc2N2CCCC12 (stereo not given)
selectivity ratio [18]: 17.4 | IC50 [19]: 46700 nM | IC50 (Trypanosoma brucei): 2700 nM

O=C(CC1CCc2cc(Cl)cc3[nH]c(=O)c(=O)n1c23)Nc1ccccc1 (stereo not given)
Ki [20]: 6.6 nM | Activity [21]: 79.3%

CCOC(=O)c1nc2ccc(C)cc2[nH]c1=O
MIC (Candida): 250 µg/mL (≈ 1080 µM) | MIC (Pseudomonas aeruginosa): 250 µg/mL (≈ 1080 µM)

O=C1CC(c2ccccc2)=NN1c1nc2ccccc2[nH]c1=O
MIC (Shigella dysenteriae): 62.5 µg/mL (≈ 205 µM) | MIC (Bacillus cereus): 7.8 µg/mL (≈ 25.6 µM) | MIC (Bacillus subtilis): 7.8 µg/mL (≈ 25.6 µM) | MIC (Klebsiella pneumoniae): 7.8 µg/mL (≈ 25.6 µM) | MIC (Pseudomonas aeruginosa): 31.3 µg/mL (≈ 103 µM) | MIC (Bacillus anthracis): 7.8 µg/mL (≈ 25.6 µM) | MIC [16]: 15.6 µg/mL (≈ 51.3 µM) | MIC (Escherichia coli): 15.6 µg/mL (≈ 51.3 µM) | MIC (Enterococcus faecalis): 7.8 µg/mL (≈ 25.6 µM)

O=C(O)CC1CCc2cc(Cl)cc3[nH]c(=O)c(=O)n1c23 (stereo not given)
Ki [20]: 5.1 nM | Activity [21]: 90.3%

CCC(C)C1Nc2ccccc2NC1=O (stereo not given)
IC50 (HeLa S3): 17200 nM

COc1ccc(N2CCN(CCCNC(=O)CN3C(=O)C4CCCN4c4c(C)ccnc43)CC2)cc1 (stereo not given)
IC50 [22]: 2820 nM

Cc1cc2[nH]c(=O)c(=O)n(C[C@@H](N)C(=O)O)c2cc1C
EC50 [23]: 300000 nM

CC[C@H]1C(=O)N(C)c2ccc(F)cc2N1C(=O)c1ccc(O)cc1O
EC50 [7]: 169 nM | half-life [8]: > 30 min | Activity (Homo sapiens [9]): 36% | IC50 [10]: 20 nM | Activity (Homo sapiens [11]): 96% | solubility [12]: > 100 µg/mL

O=C(CC1CCc2cc(Br)cc3[nH]c(=O)c(=O)n1c23)Nc1ccccc1 (stereo not given)
Ki [20]: 2.6 nM | IC50 [24]: 4600 nM | IC50 [25]: > 25000 nM | IC50 [26]: > 25000 nM

Cc1cccc(Oc2nn3c(C(N)=O)nnc3c3ccccc23)c1
Activity (Mus musculus): 42.81% | Activity (Rattus norvegicus [27]): 20% | Activity (RAW264.7): 10.31%
